Results published in patent EP4316461A1, “A PRESERVATIVE COMPOSITION” (BRAIN Biotech AG, priority 2022, dated 2024).

Tests used:
Assay type in all cases: cell-based
[1] = system: Gluconacetobacter liquefaciens; assay: Antimicrobial activity (MIC); details: Strain ID DSM 5603; potato dextrose broth pH 3.8
Malassezia furfur = assay: Antimicrobial activity (MIC); details: Strain ID DSM 6170; potato dextrose broth pH 3.8
[2] = system: Leuconostoc mesenteroides ssp. mesenteroides; assay: Antimicrobial activity (MIC); details: Strain ID DSM 20343; potato dextrose broth pH 3.8
Pseudomonas fluorescens = assay: Antimicrobial activity (MIC); details: Strain ID DSM50337; potato dextrose broth pH 3.8
Botrytis cinerea = assay: Antimicrobial activity (MIC); details: Strain ID DSM 5145; potato dextrose broth pH 3.8
Corynebacterium xerosis = assay: Antimicrobial activity (MIC); details: Strain ID DSM 20743; potato dextrose broth pH 3.8
Byssochlamys fulva = assay: Antimicrobial activity (MIC); details: Strain ID DSM 1808; potato dextrose broth pH 3.8
[3] = system: Cladosporium cladosporioides; assay: Antimicrobial activity (MIC); details: Strain ID DSM19653; potato dextrose broth pH 3.8
Alternaria alternata = assay: Antimicrobial activity (MIC); details: Strain ID DSM 12633; potato dextrose broth pH 3.8
Cutibacterium acnes = assay: Antimicrobial activity (MIC); details: Strain ID DSM 1897; potato dextrose broth pH 3.8
[4] = system: Fusobacterium nucleatum subsp. vincentii; assay: Antimicrobial activity (MIC); details: Strain ID DSM 19507; potato dextrose broth pH 3.8
[5] = system: Salmonella enterica ssp. enterica Ser. typhimurium; assay: Antimicrobial activity (MIC); details: Strain ID DSM 17058; potato dextrose broth pH 3.8
Aspergillus brasiliensis = assay: Antimicrobial activity (MIC); details: Strain ID DSM 1988; potato dextrose broth pH 3.8
Zygosaccharomyces rouxii = assay: Antimicrobial activity (MIC); details: Strain ID DSM 7525; potato dextrose broth pH 3.8
[6] = system: Brettanomyces naardenensis; assay: Antimicrobial activity (MIC); details: Strain ID CBS 6115; potato dextrose broth pH 3.8
[7] = system: Lactobacillus plantarum ssp. plantarum; assay: Antimicrobial activity (MIC); details: Strain ID DSM 20174; potato dextrose broth pH 3.8
Enterococcus faecalis = assay: Antimicrobial activity (MIC); details: Strain ID ATCC 7080; potato dextrose broth pH 3.8
Saccharomyces cerevisiae = assay: Antimicrobial activity (MIC); details: Strain ID DSM 2548; potato dextrose broth pH 3.8
Candida albicans = assay: Antimicrobial activity (MIC); details: Strain ID ATCC10231; potato dextrose broth pH 3.8
Candida parapsilosis = assay: Antimicrobial activity (MIC); details: Strain ID ATCC 20384; potato dextrose broth pH 3.8
Porphyromonas gingivalis = assay: Antimicrobial activity (MIC); details: Strain ID DSM 20709; potato dextrose broth pH 3.8
Leuconostoc lactis = assay: Antimicrobial activity (MIC); details: Strain ID DSM 20202; potato dextrose broth pH 3.8
Listeria monocytogenes = assay: Antimicrobial activity (MIC); details: Strain ID DSM 20600; potato dextrose broth pH 3.8
Staphylococcus aureus = assay: Antimicrobial activity (MIC); details: Strain ID DSM 2569; potato dextrose broth pH 3.8
Enterobacter cloacae = assay: Antimicrobial activity (MIC); details: Strain ID DSM 6234; potato dextrose broth pH 3.8
[8] = system: Pasteurella multocida ssp. multocida; assay: Antimicrobial activity (MIC); details: Strain ID DSM 16031; potato dextrose broth pH 3.8
Streptococcus mutans = assay: Antimicrobial activity (MIC); details: Strain ID DSM 20523; potato dextrose broth pH 3.8
Penicillium expansum = assay: Antimicrobial activity (MIC); details: Strain ID DSM 62841; potato dextrose broth pH 3.8
Bacillus cereus = assay: Antimicrobial activity (MIC); details: Strain ID DSM4490; potato dextrose broth pH 3.8
[9] = system: Phanerochaete chrysosporium; assay: Antimicrobial activity (MIC); details: Strain ID DSM 1556; potato dextrose broth pH 3.8
Campylobacter jejuni = assay: Antimicrobial activity (MIC); details: Strain ID DSM 4688; potato dextrose broth pH 3.8
[10] = system: Alicyclobacillus acidoterrestris; assay: Antimicrobial activity (MIC); details: Strain ID DSM 2498; potato dextrose broth pH 3.8
Pseudomonas aeruginosa = assay: Antimicrobial activity (MIC); details: Strain ID DSM 1117; potato dextrose broth pH 3.8
Yarrowia lipolytica = assay: Antimicrobial activity (MIC); details: Strain ID DSM 70561; potato dextrose broth pH 3.8
Actinomyces viscosus = assay: Antimicrobial activity (MIC); details: Strain ID DSM43798; potato dextrose broth pH 3.8
Clostridium perfringens = assay: microbe, parasite or virus in culture; details: Strain ID DSM 756; potato dextrose broth pH 3.8
Zygosaccharomyces bailii = assay: Antimicrobial activity (MIC); details: Strain ID DSM 70834; potato dextrose broth pH 3.8
[11] = system: Lactobacillus paracasei ssp. paracasei; assay: Antimicrobial activity (MIC); details: Strain ID DSM 46331; potato dextrose broth pH 3.8
Bacillus licheniformis = assay: Antimicrobial activity (MIC); details: Strain ID DSM 13; potato dextrose broth pH 3.8
Clostridium sporogenes = assay: Antimicrobial activity (MIC); details: Strain ID ATCC 19404; potato dextrose broth pH 3.8

C[C@@H]1O[C@@H](O[C@H]2[C@H](O[C@H]3CC[C@@]4(C)C(CC[C@]5(C)[C@@H]4CC=C4[C@H]6CC(C)(C)CC[C@]6(C(=O)O)CC[C@]45C)C3(C)CO)OC[C@H](O)[C@@H]2O[C@@H]2OC[C@H](O)[C@H](O)[C@H]2O)[C@H](O)[C@H](O)[C@H]1O (some centres unmarked) [B, Clemontanoside C [80666-65-5]]
Minimal Inhibitory Concentration (MIC) [1]: 40 µg/mL
Minimal Inhibitory Concentration (MIC) (Malassezia furfur): 80 µg/mL
Minimal Inhibitory Concentration (MIC) [2]: > 80 µg/mL
Minimal Inhibitory Concentration (MIC) (Pseudomonas fluorescens): > 80 µg/mL
Minimal Inhibitory Concentration (MIC) (Botrytis cinerea): > 80 µg/mL
Minimal Inhibitory Concentration (MIC) (Corynebacterium xerosis): > 80 µg/mL
Minimal Inhibitory Concentration (MIC) (Byssochlamys fulva): > 80 µg/mL
Minimal Inhibitory Concentration (MIC) [3]: > 80 µg/mL
Minimal Inhibitory Concentration (MIC) (Alternaria alternata): > 80 µg/mL
Minimal Inhibitory Concentration (MIC) (Cutibacterium acnes): > 80 µg/mL
Minimal Inhibitory Concentration (MIC) [4]: > 80 µg/mL
Minimal Inhibitory Concentration (MIC) [5]: > 80 µg/mL
Minimal Inhibitory Concentration (MIC) (Aspergillus brasiliensis): > 80 µg/mL
Minimal Inhibitory Concentration (MIC) (Zygosaccharomyces rouxii): 500 µg/mL
Minimal Inhibitory Concentration (MIC) [6]: > 80 µg/mL
Minimal Inhibitory Concentration (MIC) [7]: 400 µg/mL
Minimal Inhibitory Concentration (MIC) (Enterococcus faecalis): > 80 µg/mL
Minimal Inhibitory Concentration (MIC) (Saccharomyces cerevisiae): > 80 µg/mL
Minimal Inhibitory Concentration (MIC) (Candida albicans): > 80 µg/mL
Minimal Inhibitory Concentration (MIC) (Candida parapsilosis): > 80 µg/mL
Minimal Inhibitory Concentration (MIC) (Porphyromonas gingivalis): > 80 µg/mL
Minimal Inhibitory Concentration (MIC) (Leuconostoc lactis): > 80 µg/mL
Minimal Inhibitory Concentration (MIC) (Listeria monocytogenes): > 80 µg/mL
Minimal Inhibitory Concentration (MIC) (Staphylococcus aureus): > 80 µg/mL
Minimal Inhibitory Concentration (MIC) (Enterobacter cloacae): > 80 µg/mL
Minimal Inhibitory Concentration (MIC) [8]: > 80 µg/mL
Minimal Inhibitory Concentration (MIC) (Streptococcus mutans): > 80 µg/mL
Minimal Inhibitory Concentration (MIC) (Penicillium expansum): >500 µg/mL
Minimal Inhibitory Concentration (MIC) (Bacillus cereus): > 80 µg/mL
Minimal Inhibitory Concentration (MIC) [9]: > 80 µg/mL
Minimal Inhibitory Concentration (MIC) (Campylobacter jejuni): > 80 µg/mL
Minimal Inhibitory Concentration (MIC) [10]: 140 µg/mL
Minimal Inhibitory Concentration (MIC) (Pseudomonas aeruginosa): > 80 µg/mL
Minimal Inhibitory Concentration (MIC) (Yarrowia lipolytica): > 80 µg/mL
Minimal Inhibitory Concentration (MIC) (Actinomyces viscosus): > 80 µg/mL
Minimal Inhibitory Concentration (MIC) (Clostridium perfringens): > 80 µg/mL
Minimal Inhibitory Concentration (MIC) (Zygosaccharomyces bailii): > 80 µg/mL
Minimal Inhibitory Concentration (MIC) [11]: > 80 µg/mL
Minimal Inhibitory Concentration (MIC) (Bacillus licheniformis): > 80 µg/mL
Minimal Inhibitory Concentration (MIC) (Clostridium sporogenes): 80 µg/mL

Transsylvanoside H [C, Transsylvanoside H [174423-50-8]]
Minimal Inhibitory Concentration (MIC) [1]: 140 µg/mL
Minimal Inhibitory Concentration (MIC) (Malassezia furfur): > 80 µg/mL
Minimal Inhibitory Concentration (MIC) [2]: > 80 µg/mL
Minimal Inhibitory Concentration (MIC) (Pseudomonas fluorescens): > 80 µg/mL
Minimal Inhibitory Concentration (MIC) (Botrytis cinerea): > 80 µg/mL
Minimal Inhibitory Concentration (MIC) (Corynebacterium xerosis): > 80 µg/mL
Minimal Inhibitory Concentration (MIC) (Byssochlamys fulva): > 80 µg/mL
Minimal Inhibitory Concentration (MIC) [3]: > 80 µg/mL
Minimal Inhibitory Concentration (MIC) (Alternaria alternata): > 80 µg/mL
Minimal Inhibitory Concentration (MIC) (Cutibacterium acnes): > 80 µg/mL
Minimal Inhibitory Concentration (MIC) [4]: 80 µg/mL
Minimal Inhibitory Concentration (MIC) [5]: > 80 µg/mL
Minimal Inhibitory Concentration (MIC) (Aspergillus brasiliensis): > 80 µg/mL
Minimal Inhibitory Concentration (MIC) (Zygosaccharomyces rouxii): 500 µg/mL
Minimal Inhibitory Concentration (MIC) [6]: > 80 µg/mL
Minimal Inhibitory Concentration (MIC) [7]: 40 µg/mL
Minimal Inhibitory Concentration (MIC) (Enterococcus faecalis): > 80 µg/mL
Minimal Inhibitory Concentration (MIC) (Saccharomyces cerevisiae): > 80 µg/mL
Minimal Inhibitory Concentration (MIC) (Candida albicans): > 80 µg/mL
Minimal Inhibitory Concentration (MIC) (Candida parapsilosis): > 80 µg/mL
Minimal Inhibitory Concentration (MIC) (Porphyromonas gingivalis): > 80 µg/mL
Minimal Inhibitory Concentration (MIC) (Leuconostoc lactis): 80 µg/mL
Minimal Inhibitory Concentration (MIC) (Listeria monocytogenes): > 80 µg/mL
Minimal Inhibitory Concentration (MIC) (Staphylococcus aureus): > 80 µg/mL
Minimal Inhibitory Concentration (MIC) (Enterobacter cloacae): > 80 µg/mL
Minimal Inhibitory Concentration (MIC) [8]: > 80 µg/mL
Minimal Inhibitory Concentration (MIC) (Streptococcus mutans): > 80 µg/mL
Minimal Inhibitory Concentration (MIC) (Penicillium expansum): >500 µg/mL
Minimal Inhibitory Concentration (MIC) (Bacillus cereus): > 80 µg/mL
Minimal Inhibitory Concentration (MIC) [9]: > 80 µg/mL
Minimal Inhibitory Concentration (MIC) (Campylobacter jejuni): > 80 µg/mL
Minimal Inhibitory Concentration (MIC) [10]: 40 µg/mL
Minimal Inhibitory Concentration (MIC) (Pseudomonas aeruginosa): > 80 µg/mL
Minimal Inhibitory Concentration (MIC) (Yarrowia lipolytica): > 80 µg/mL
Minimal Inhibitory Concentration (MIC) (Actinomyces viscosus): > 80 µg/mL
Minimal Inhibitory Concentration (MIC) (Clostridium perfringens): > 80 µg/mL
Minimal Inhibitory Concentration (MIC) (Zygosaccharomyces bailii): > 80 µg/mL
Minimal Inhibitory Concentration (MIC) [11]: > 80 µg/mL
Minimal Inhibitory Concentration (MIC) (Bacillus licheniformis): > 80 µg/mL
Minimal Inhibitory Concentration (MIC) (Clostridium sporogenes): 80 µg/mL
